Earlier results in US8512751B2, “Pharmaceutical compositions for sleep disorders” (Collegium Pharmaceutical, Inc., priority 2004, dated 2013).
Where a name gives a salt, the structure may show the parent alone. Values belong to the compound of their own block, whether it stands above or below them.

Tests used:
[1] = test system: sleep apnea; conditions: for effect in individuals with sleep apnea: patients, literature
[2] = water and normal saline
[3] = man, single oral 40-mg dose
[4] = test system: nocturnal sleep; conditions: healthy adults; 20, 40 and 60 mg
[5] = test system: EOG and EMG activity
[6] = test system: sleep apnea; conditions: animal model of sleep apnea
[7] = test system: serotonin uptake; conditions: animal models
[8] = in vivo

Compound: Cn1c(=O)c2[nH]cnc2n(C)c1=O [theophylline]
effect in individuals with sleep apnea [1]: may benefit patients with central apnea but appears to be of no use in adult patients with obstructive apnea

solubility [2]: soluble in water and normal saline
Compound: Cc1nccn1CC1CCc2c(c3ccccc3n2C)C1=O (racemic) [Ondansetron HCl dihydrate, (±) 1,2,3,9-tetrahydro-9-methyl-3-[(2-methyl-1H-imidazol-1-yl)methyl]-4H-carbazol-4-one, monohydrochloride, dihydrate]

Compound: CC(=O)Nc1nnc(S(N)(=O)=O)s1 [acetazolamide]
effect in individuals with sleep apnea [1]: produced variable improvement in individuals with primary central apneas but caused an increase in obstructive apneas

Compound: C=CCN1CC[C@]23c4c5ccc(O)c4O[C@H]2C(=O)CC[C@@]3(O)[C@H]1C5 [naloxone]
effect in individuals with sleep apnea [1]: only slightly helpful

Compound: CNCCCC1c2ccccc2C=Cc2ccccc21 [Protriptyline]
effect in individuals with sleep apnea [1]: variable results and frequent and significant side effects

peak plasma concentrations [3]: 15 to 55 ng/mL
time of peak plasma concentrations [3]: 6 to 8 h
patients with increased EOG and EMG activity on treatment in every sleep stage ([5]; in vivo): Thirty-four
Compound: CNCCC(Oc1ccc(C(F)(F)F)cc1)c1ccccc1 (stereo not drawn) [fluoxetine]
individuals with OSAS with measurable benefits ([1]; initial evidence): approximately 50%
effects on nocturnal sleep [4]: reduced the total sleep time and the duration of rapid eye movement (REM) sleep and increased awake activity and stage 1 (drowsy) sleep during the night
number of eye movements, EOG and EMG activity on treatment ([5]; REM, stages 1, 2, and slow-wave sleep): significantly increases the number of eye movements

Compound: Nc1ncnc2c1ncn2[C@@H]1O[C@H](CO)[C@@H](O)[C@H]1O [adenosine]
reduction of apnea [6]: somewhat effective in reducing apnea

Bioavailability, effect of antacids (antacids): unaffected
Mean bioavailability (healthy subjects, single 8-mg tablet): approximately 56%
radiolabeled dose recovered from the urine as the parent compound (humans): approximately 5%
AUC from a 16-mg tablet greater than predicted from an 8-mg tablet dose (oral tablets): 24%
half-life (plasma, humans): 3 to 5 h
Bioavailability, effect of food (presence of food): slightly enhanced
extent and rate of absorption, gender difference (single dose): greater in women than men
Compound: Cc1nccn1CC1CCc2c(c3ccccc3n2C)C1=O (stereo not drawn) [Ondansetron]

Compound: medroxyprogesterone
effect in individuals with sleep apnea [1]: no consistent benefit in OSAS

Compound: NCC[C@@H](Oc1ccc(C(F)(F)F)cc1)c1ccccc1 [R-norfluoxetine]
inhibition of serotonin uptake, activity relative to fluoxetine [7]: significantly less potent than the parent drug

Compound: NCC[C@H](Oc1ccc(C(F)(F)F)cc1)c1ccccc1 [S-norfluoxetine]
inhibition of serotonin uptake, activity relative to fluoxetine [7]: essentially equivalent to R- or S-fluoxetine

Compound: CC1(C)Cc2cc(Cl)cc(C(=O)NC3CC4CCC(C3)[N+]4(C)C)c2O1 (stereo not drawn) [methylated zatosetron]
ability to cross the blood-brain barrier [8]: lack the ability to cross the blood-brain barrier

Compound: CCN1CC(CCN2CCOCC2)C(c2ccccc2)(c2ccccc2)C1=O (stereo not drawn) [doxapram]
effect in individuals with sleep apnea [1]: decrease the length of apneas but did not alter the average arterial oxygen saturation
